The numbers were not newly measured in patent US11324751B1 (Janssen Pharmaceutica NV, priority 2020, dated 2022), which cites them from elsewhere.

As to `CCCCCCCCCCCCCCCC(=O)OC1CCCn2c1nc(C)c(CCN1CCC(c3noc4cc(F)ccc34)CC1)c2=O` (racemic) [paliperidone palmitate, (=)-3-[2-[4-(6-fluoro-1,2-benzisoxazol-3-yl)-1-piperidinyl]ethyl]-6,7,8,9-tetrahydro-2-methyl-4-oxo-4H-pyrido[1,2-c]pyrimidin-9-yl hexadecanoate], the water solubility result is listed as “extreme low water solubility”.
